These results are taken from PubChem BioAssay AID248 (DTP/NCI, 2004).

This test concerns L1210 leukemia ip in BDF1 mice, survival T/C. The test is described as follows: NCI In Vivo Anticancer Drug Screen. Data for tumor model L1210 Leukemia (intraperitoneal) in B6D2F1 (BDF1) mice. To be noted: endpoint: mean survival time, higher = longer survival. In a few lines: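 Each compound was tested against a transplantable tumor grown in mice. The endpoint was survival, with treated animals benchmarked against vehicle controls as a simple ratio.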

The mark [1] stands for this setting: dose: 100.0 mg/kg/injection, schedule: Q01DX001 (ip), vehicle: Klucel (hydroxypropylcellulose) (HPC).
The mark [2] stands for this setting: dose: 200.0 mg/kg/injection, schedule: Q01DX001 (ip), vehicle: Klucel (hydroxypropylcellulose) (HPC).
[3] abbreviates: dose: 400.0 mg/kg/injection, schedule: Q01DX001 (ip), vehicle: Klucel (hydroxypropylcellulose) (HPC).
The mark [4] stands for this setting: dose: 100.0 mg/kg/injection, schedule: Q01DX009 (ip), vehicle: Klucel (hydroxypropylcellulose) (HPC).
Setting [5] is: dose: 25.0 mg/kg/injection, schedule: Q01DX009 (ip), vehicle: Klucel (hydroxypropylcellulose) (HPC).
Setting [6] is: dose: 50.0 mg/kg/injection, schedule: Q01DX009 (ip), vehicle: Klucel (hydroxypropylcellulose) (HPC).
Setting [7] is: dose: 100.0 mg/kg/injection, schedule: Q04DX002 (ip), vehicle: Klucel (hydroxypropylcellulose) (HPC).
Setting [8] is: dose: 200.0 mg/kg/injection, schedule: Q04DX002 (ip), vehicle: Klucel (hydroxypropylcellulose) (HPC).
[9] abbreviates: dose: 400.0 mg/kg/injection, schedule: Q04DX002 (ip), vehicle: Klucel (hydroxypropylcellulose) (HPC).
Where [10] appears, read: dose: 100.0 mg/kg/injection, schedule: Q04DX003 (ip), vehicle: saline with Tween-80.
[11] abbreviates: dose: 200.0 mg/kg/injection, schedule: Q04DX003 (ip), vehicle: saline with Tween-80.
[12] abbreviates: dose: 400.0 mg/kg/injection, schedule: Q04DX003 (ip), vehicle: saline with Tween-80.
The mark [13] stands for this setting: dose: 100.0 mg/kg/injection, schedule: Q01DX001 (ip), vehicle: carboxymethylcellulose (CMC).
Setting [14] is: dose: 100.0 mg/kg/injection, schedule: Q01DX009 (ip), vehicle: carboxymethylcellulose (CMC).
Where [15] appears, read: dose: 200.0 mg/kg/injection, schedule: Q01DX001 (ip), vehicle: carboxymethylcellulose (CMC).
[16] abbreviates: dose: 200.0 mg/kg/injection, schedule: Q01DX009 (ip), vehicle: carboxymethylcellulose (CMC).

Each structure is given as a SMILES string. Several values for one entry are separate records, joined by “and”; a condition that tells them apart may be missing. Equal entries are not always repeated. Inconclusive results and toxic doses are left out.

`Nc1ccc(S(=O)(=O)NCCO)cc1[N+](=O)[O-]`: the T/C is, setting by setting: under setting [1], 103 % of control; (dose: 100.0 mg/kg/injection, schedule: Q01DX009 (ip), vehicle: saline sonified) 96 % of control; under setting [2], 106 % of control; (dose: 200.0 mg/kg/injection, schedule: Q01DX009 (ip), vehicle: saline sonified) 102 % of control; under setting [3], 105 % of control; (dose: 400.0 mg/kg/injection, schedule: Q01DX009 (ip), vehicle: saline sonified) 93 % of control.

On to `Cc1ccc(C)c(-n2c(C)nc3ccccc3c2=O)c1`, for which the T/C reads like this: under setting [4], 86 % of control; (dose: 200.0 mg/kg/injection, schedule: Q01DX009 (ip), vehicle: Klucel (hydroxypropylcellulose) (HPC)) 100 % of control; (dose: 400.0 mg/kg/injection, schedule: Q01DX009 (ip), vehicle: Klucel (hydroxypropylcellulose) (HPC)) 91 % of control.

Consider `CCCCN(C)N=Nc1ccc(CCCC(=O)OCC)cc1`, for which the T/C (dose: 12.5 mg/kg/injection, schedule: Q01DX009 (ip), vehicle: Klucel (hydroxypropylcellulose) (HPC)) is 108 % of control; the T/C (dose: 20.0 mg/kg/injection, schedule: Q01DX009 (ip), vehicle: saline) is 107 % of control; the T/C under setting [5] is 106 % of control; the T/C (dose: 35.0 mg/kg/injection, schedule: Q01DX009 (ip), vehicle: saline) was 121 % of control; the T/C under setting [6] was 110 % of control; the T/C (dose: 50.0 mg/kg/injection, schedule: Q01DX009 (ip), vehicle: saline) was 195 % of control. The T/C by setting is: (dose: 55.0 mg/kg/injection, schedule: Q01DX009 (ip), vehicle: saline) 101 % of control and 109 % of control; (dose: 84.0 mg/kg/injection, schedule: Q01DX009 (ip), vehicle: saline) 107 % of control and 115 % of control; under setting [4], 123 % of control; (dose: 100.0 mg/kg/injection, schedule: Q01DX009 (ip), vehicle: saline) 101 % of control; (dose: 100.0 mg/kg/injection, schedule: Q04DX003 (ip), vehicle: saline) 119 % of control; (dose: 125.0 mg/kg/injection, schedule: Q01DX009 (ip), vehicle: saline) 114 % of control and 119 % of control.

As for `COc1cc2c(cc1OC)C(CCC(=O)O)=NCC2`, the T/C (dose: 12.5 mg/kg/injection, schedule: Q04DX002 (ip), vehicle: saline) was 101 % of control; the T/C (dose: 25.0 mg/kg/injection, schedule: Q04DX002 (ip), vehicle: saline) was 104 % of control; the T/C (dose: 50.0 mg/kg/injection, schedule: Q04DX002 (ip), vehicle: saline) is 90 % of control.

Consider `[O-][n+]1onc2ccccc21`, for which the T/C (dose: 100.0 mg/kg/injection, schedule: Q01DX001 (ip), vehicle: saline with Tween-80) was 97 % of control.

In the case of `Nc1ccccc1N=Cc1cc(F)ccc1[N+](=O)[O-]`, the T/C (dose: 100.0 mg/kg/injection, schedule: Q04DX003 (ip), vehicle: other) was 97 % of control; the T/C (dose: 200.0 mg/kg/injection, schedule: Q04DX003 (ip), vehicle: other) was 102 % of control; the T/C (dose: 400.0 mg/kg/injection, schedule: Q04DX003 (ip), vehicle: other) was 114 % of control.

Regarding `CC1(C)NC(=S)NC1=S`, the T/C (dose: 100.0 mg/kg/injection, schedule: Q01DX009 (ip), vehicle: alcohol) is 103 % of control; the T/C under setting [7] is 89 % of control; the T/C (dose: 200.0 mg/kg/injection, schedule: Q01DX009 (ip), vehicle: alcohol) is 101 % of control; the T/C under setting [8] is 89 % of control; the T/C under setting [9] was 96 % of control.

For `CCOC(=O)C(C(=O)OCC)C(=O)c1cccc2ccc3ccccc3c12`, the T/C is 96 % of control under setting [10], 96 % of control under setting [11] and 97 % of control under setting [12].

`COc1cc(/C=C\C(=O)c2cccc([N+](=O)[O-])c2)cc(OC)c1OC`: the T/C is 96 % of control under setting [7], 89 % of control under setting [8] and 100 % of control under setting [9].

For `N#CCC(c1ccccc1)C(C#N)c1ccccc1` (stereo not drawn), the T/C is 97 % of control (dose: 75.0 mg/kg/injection, schedule: Q01DX001 (ip), vehicle: carboxymethylcellulose (CMC)) and 93 % of control (dose: 150.0 mg/kg/injection, schedule: Q01DX001 (ip), vehicle: carboxymethylcellulose (CMC)).

`CC[N+](CC)(CC)CC(=O)NCc1ccco1`: the T/C was 105 % of control (dose: 50.0 mg/kg/injection, schedule: Q01DX001 (ip), vehicle: carboxymethylcellulose (CMC)); 103 % of control (dose: 50.0 mg/kg/injection, schedule: Q01DX009 (ip), vehicle: carboxymethylcellulose (CMC)); 94 % of control (dose: 50.0 mg/kg/injection, schedule: Q04DX003 (ip), vehicle: carboxymethylcellulose (CMC)); 99 % of control under setting [13]; 103 % of control and 104 % of control under setting [14]; 95 % of control and 103 % of control (dose: 100.0 mg/kg/injection, schedule: Q04DX002 (ip), vehicle: carboxymethylcellulose (CMC)). The T/C (dose: 100.0 mg/kg/injection, schedule: Q04DX003 (ip), vehicle: carboxymethylcellulose (CMC)) was 102 % of control; the T/C under setting [15] was 99 % of control; the T/C under setting [16] was 101 % of control and 90 % of control; the T/C (dose: 200.0 mg/kg/injection, schedule: Q04DX002 (ip), vehicle: carboxymethylcellulose (CMC)) is 97 % of control and 92 % of control; the T/C (dose: 200.0 mg/kg/injection, schedule: Q04DX003 (ip), vehicle: carboxymethylcellulose (CMC)) is 102 % of control; the T/C (dose: 400.0 mg/kg/injection, schedule: Q04DX002 (ip), vehicle: carboxymethylcellulose (CMC)) was 90 % of control.

Consider `O=C(Nc1ccccc1)c1ccc(C(=O)Nc2ccccc2)cc1`, for which the T/C is, setting by setting: under setting [13], 86 % of control; (dose: 100.0 mg/kg/injection, schedule: Q01DX001 (oral), vehicle: carboxymethylcellulose (CMC)) 108 % of control; under setting [14], 101 % of control; (dose: 100.0 mg/kg/injection, schedule: Q01DX009 (oral), vehicle: carboxymethylcellulose (CMC)) 103 % of control; under setting [15], 87 % of control; (dose: 200.0 mg/kg/injection, schedule: Q01DX001 (oral), vehicle: carboxymethylcellulose (CMC)) 108 % of control. The T/C by setting is: under setting [16], 100 % of control; (dose: 200.0 mg/kg/injection, schedule: Q01DX009 (oral), vehicle: carboxymethylcellulose (CMC)) 105 % of control; (dose: 400.0 mg/kg/injection, schedule: Q01DX001 (ip), vehicle: carboxymethylcellulose (CMC)) 87 % of control; (dose: 400.0 mg/kg/injection, schedule: Q01DX001 (oral), vehicle: carboxymethylcellulose (CMC)) 104 % of control; (dose: 400.0 mg/kg/injection, schedule: Q01DX009 (ip), vehicle: carboxymethylcellulose (CMC)) 95 % of control; (dose: 400.0 mg/kg/injection, schedule: Q01DX009 (oral), vehicle: carboxymethylcellulose (CMC)) 111 % of control. Further, the T/C by setting is: (dose: 800.0 mg/kg/injection, schedule: Q01DX001 (ip), vehicle: carboxymethylcellulose (CMC)) 92 % of control; (dose: 800.0 mg/kg/injection, schedule: Q01DX001 (oral), vehicle: carboxymethylcellulose (CMC)) 106 % of control; (dose: 800.0 mg/kg/injection, schedule: Q01DX009 (ip), vehicle: carboxymethylcellulose (CMC)) 97 % of control.

In the case of `CC(C)CN(CC(C)C)[N+](=O)[O-]`, the T/C reads like this: under setting [1], 97 % of control; under setting [2], 114 % of control; under setting [3], 97 % of control.

In the case of `CC(C)(C)CC(C)(C)c1ccc(OCCOc2ccccc2NC(=O)c2ccc3ccccc3c2O)cc1`, the T/C is 98 % of control under setting [10], 103 % of control under setting [11] and 86 % of control under setting [12].

With `O=C(O)CC(=O)c1ccc(I)cc1`, the T/C (dose: 75.0 mg/kg/injection, schedule: Q01DX001 (ip), vehicle: saline) is 94 % of control.

Take `O=C(NC(=S)Nc1cccc(Cl)c1)c1ccccc1F`: the T/C was 87 % of control under setting [5], 86 % of control under setting [6] and 87 % of control under setting [4].
